Here are results for eleven molecules from ChEMBL document CHEMBL1201862, “PubChem BioAssay data set” (2004).

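How tested: cells in 96-well plates exposed to compound for 48 hours at five concentrations. The concentration for 50% growth inhibition is given as GI50.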 The source made the active and inactive calls. Rule as the data show it: active = GI50 up to about 1.1 µM and inactive = higher. Where a SMILES comes first, the peptide text is derived from it. The star is where a group is joined. Boc = CC(C)(C)OC(=O)*; nBu = CCCC* Some results are limits rather than exact numbers.

Holding throughout (experiment): NCI-60 cell line screen, 48 h
Assay [1] relates to NCI-H23.
Assay [2] deals with HCT-15.
Assay [3] deals with KM12.
Assay [4] relates to SK-OV-3.
The subject of assay [5] is SF-295.
Assay [6] concerns HT-29.
Assay [7] deals with SN12C.
The subject of assay [8] is CAKI-1.
In assay [9] the test system is SR.
The test system of assay [10] is SW-620.
Assay [11] concerns HOP-92.
Assay [12] relates to UACC-62.
Assay [13] concerns UACC-257.
Assay [14] has as its system COLO 205.
Assay [15] concerns TK-10.
The test system of assay [16] is HCT-116.
Assay [17] deals with SK-MEL-5.
Assay [18] relates to HL-60.
For assay [19], the system named is CCRF-CEM.
Assay [20] has as its system RXF 393.

In the case of `O=C(/C=C/c1cccs1)c1ccc(C(=O)/C=C/c2cccs2)cc1`, the GI50 in assay [1] was > 100 µM (inactive); in assay [2], over 100 µM; in [3], > 100 µM (inactive); in [4], > 100 µM (inactive); in assay [5], > 100 µM (inactive); in assay [6], > 100 µM (inactive). The GI50 in assay [7], in assay [8], in assay [9], in assay [10], in assay [11] and in assay [12] was > 100 µM (inactive) in each case. For the same molecule, the GI50 in assay [13], in assay [14] and in [15] was > 100 µM (inactive) each time.

In the case of `COc1ccc(-c2ccc(CC(=O)O)cc2)cc1OC`, the GI50 in [1], in [16], in assay [17], in assay [18], in assay [3] and in assay [4] was > 100 µM (inactive) throughout. Besides, the GI50 in assay [5], in [6], in [7], in assay [8], in assay [9] and in assay [10] was > 100 µM (inactive) each time. Further, the GI50 in [11], in [12], in assay [13], in assay [14], in assay [19] and in assay [15] was > 100 µM (inactive) throughout.

Take `N#CC1=C(N)n2c(s/c(=C\c3ccc(Cl)cc3)c2=O)=C(c2nc3ccccc3[nH]2)C1c1ccc(Cl)cc1` (stereo not given): the GI50 in assay [1] was 0.426 µM (active); in assay [16], 1.82 µM (inactive); in [17], 3.02 µM (inactive); in assay [2], 2.06 µM; in assay [18], 2.04 µM (inactive); in assay [3], 1.42 µM (inactive). For the same molecule, the GI50 is 2.19 µM (inactive) in assay [7]; 2.98 µM (inactive) in [8]; 2.17 µM (inactive) in assay [9]; 1.37 µM (inactive) in assay [10]; 0.203 µM (active) in assay [11]; 1.23 µM (inactive) in [12]. The GI50 in [13] is 2.48 µM (inactive); in [14], 2.51 µM (inactive); in [19], 1.71 µM (inactive); in [15], 0.596 µM (active).

Regarding `OC1=C(c2ccccc2)C2=NCCN2c2ccccc21`, the GI50 in [1] is 33.5 µM (inactive); in [16], 34.7 µM (inactive); in assay [17], 27.8 µM (inactive); in [2], 33.3 µM; in assay [18], 45.5 µM (inactive); in assay [3], 31.8 µM (inactive). Further, the GI50 in assay [5] was 46.1 µM (inactive); in assay [6], 55.2 µM (inactive); in assay [7], > 100 µM (inactive); in [8] it was > 100 µM (inactive); in assay [9], 87.3 µM (inactive); in assay [10] it was 78.7 µM (inactive). For the same molecule, the GI50 in [11] was > 100 µM (inactive); in assay [12] it was 29.2 µM (inactive); in [13], 93.1 µM (inactive); in assay [14] it was 47 µM (inactive); in assay [19] it was 51.5 µM (inactive); in [15], 94 µM (inactive).

For `COc1ccc(C(=O)OCC2OC(n3cnc4c(=S)nc[nH]c43)C(OC(=O)c3ccc(OC)cc3)C2OC(=O)c2ccc(OC)cc2)cc1` (stereo not given), the GI50 in [1] was 39.7 µM (inactive); in assay [16], 10.5 µM (inactive); in [17] it was 69.2 µM (inactive); in assay [2], 47.2 µM; in [18], 26.2 µM (inactive); in assay [3], 45.6 µM (inactive). The GI50 in [5] was 33.1 µM (inactive); in assay [6], 24.9 µM (inactive); in assay [8], 48.6 µM (inactive); in assay [9], 14 µM (inactive); in [10], 46.9 µM (inactive); in [11] it was 6.05 µM (inactive). Besides, the GI50 is 13.3 µM (inactive) in assay [12]; 16.8 µM (inactive) in assay [13]; > 100 µM (inactive) in assay [14]; 8.47 µM (inactive) in assay [19]; 7.43 µM (inactive) in assay [15].

On to `O=C(O)CSc1ccc2nc3ccccc3c(O)c2c1`, for which the GI50 was > 100 µM (inactive) in [1]; > 100 µM (inactive) in assay [16]; > 100 µM (inactive) in assay [17]; over 100 µM in [2]; > 100 µM (inactive) in [18]; > 100 µM (inactive) in assay [4]. Moreover, the GI50 in assay [5], in assay [6], in [7], in assay [8], in assay [9] and in assay [10] was > 100 µM (inactive) in each case. Further, the GI50 in assay [11], in assay [12], in assay [13], in assay [14], in [19] and in [15] was > 100 µM (inactive) in each case.

For the molecule `CC(=O)On1c(-c2ccccc2-c2nc3ccccc3n2OC(C)=O)nc2ccccc21`, the GI50 in [1] is 7.48 µM (inactive); in [16], 25 µM (inactive); in assay [17], 3.4 µM (inactive); in assay [2], 67.5 µM; in assay [18], 14.7 µM (inactive); in assay [3], 22.5 µM (inactive). For the same molecule, the GI50 in [4] is 55.1 µM (inactive); in [5], 44.7 µM (inactive); in assay [7] it was 39.6 µM (inactive); in assay [8], > 100 µM (inactive); in [9], 19.1 µM (inactive); in assay [10] it was 34.4 µM (inactive). Moreover, the GI50 was 21 µM (inactive) in [12]; 12.5 µM (inactive) in assay [13]; 16.7 µM (inactive) in assay [14]; 41.3 µM (inactive) in [19]; 68.1 µM (inactive) in assay [15].

Regarding `COC(=O)/C=C/c1cnc2c(c1)oc(=O)n2CCc1ccccn1`, the GI50 in assay [1] is > 100 µM (inactive); in assay [16], > 100 µM (inactive); in assay [17], 59.6 µM (inactive); in assay [2], over 100 µM; in assay [18] it was 1.35 µM (inactive); in assay [3], > 100 µM (inactive). In addition, the GI50 in assay [4] is > 100 µM (inactive); in assay [5], > 100 µM (inactive); in [6], > 100 µM (inactive); in assay [7] it was > 100 µM (inactive); in assay [9], 30.8 µM (inactive); in assay [10] it was 92 µM (inactive). Further, the GI50 is > 100 µM (inactive) in assay [12]; > 100 µM (inactive) in assay [13]; > 100 µM (inactive) in assay [14]; 31.6 µM (inactive) in [19]; > 100 µM (inactive) in assay [15].

Consider `CO[C@@]12C[C@@H](C)C3=CCC(C)=C3CC1=C(C)C(=O)O2`, for which the GI50 in assay [1] was > 100 µM (inactive); in assay [16], > 100 µM (inactive); in assay [17], > 100 µM (inactive); in assay [2] it was over 100 µM; in [18] it was 50.8 µM (inactive); in assay [3], > 100 µM (inactive). The GI50 was 68.7 µM (inactive) in assay [4]; > 100 µM (inactive) in assay [5]; > 100 µM (inactive) in assay [6]; > 100 µM (inactive) in [8]; 44.2 µM (inactive) in [9]; > 100 µM (inactive) in [10]. Further, the GI50 was > 100 µM (inactive) in [11]; > 100 µM (inactive) in assay [12]; > 100 µM (inactive) in assay [13]; > 100 µM (inactive) in assay [14]; 50.8 µM (inactive) in assay [19]; > 100 µM (inactive) in assay [15].

In the case of `O=C1c2ccccc2C(=O)C1(O)c1c[nH]c2ccccc12`, the GI50 was > 100 µM (inactive) in assay [1]; > 100 µM (inactive) in assay [16]; over 100 µM in assay [2]; > 100 µM (inactive) in [18]; > 100 µM (inactive) in [3]; > 100 µM (inactive) in assay [4]. For the same molecule, the GI50 in [5], in assay [6], in assay [8], in assay [9], in assay [10] and in assay [11] was > 100 µM (inactive) in each case. In addition, the GI50 in [12], in assay [13], in assay [14], in assay [19] and in [15] was > 100 µM (inactive) in each case.

With `CCCCOc1ccc(CC(NC(=O)OC(C)(C)C)C(=O)NC(C)C(=O)NC(Cc2ccccc2)C(=O)NCC(N)=O)cc1` (stereo not given) (Boc-Y(nBu)AFG-NH2; configuration not given here), the GI50 in [1] is > 100 µM (inactive); in assay [16], > 100 µM (inactive); in assay [17] it was > 100 µM (inactive); in assay [2], over 100 µM; in assay [18], 22 µM (inactive); in assay [3], > 100 µM (inactive). Besides, the GI50 in assay [4], in assay [5], in assay [20], in assay [6], in assay [7] and in assay [8] was > 100 µM (inactive) throughout. Moreover, the GI50 was > 100 µM (inactive) in assay [10]; 61.4 µM (inactive) in [11]; > 100 µM (inactive) in assay [12]; > 100 µM (inactive) in assay [13]; > 100 µM (inactive) in assay [14]; 24.3 µM (inactive) in assay [19]. In addition, the GI50 in assay [15] was > 100 µM (inactive).
